Assay results reported in patent publication US20230015647A1, “INHIBITORS OF HISTONE DEMETHYLASES (PFI-63 AND PFI-90) FOR THE TREATMENT OF CANCER AND FOR THE INHIBITION OF HISTONE DEMETHYLASE IN CELLS” (The United States of America,as represented by the …, priority 2019, published 2023).
pIC50: −log10 of the molar value. “Also recorded” adds a separate entry of the source. Read-outs that look alike come from different tables or passages of the source.

Tests used:
[1] = tested on: RH4 cells; assay: Caspase 3 apoptosis assay in RH4 cells; assay type: cell-based, human
Description: (§1) The impact of PFI-63 and PFI-90 on apoptosis in rhabdomyosarcoma cells was investigated by assaying caspase 3 levels in the cells, and by annexin V staining.

[2] = tested on: SCMC cells; assay: Caspase 3 apoptosis assay in SCMC cells; assay type: cell-based, human
Description: as §1

[3] = tested on: RH30 cells; assay: Cell confluence assay (cytotoxicity) in RH30 cells; assay type: cell-based; conditions: 72 hour time point
Protocol: (§2) A cell confluence assay was performed to further assess the cytotoxicity of PFI-63 in RH4 and RH30 rhabdomyosarcoma cells. Confluence data was collected via photographic images of cells treated with PFI-63 at the following time points: 24 hours, 48 hours, 72 hours, 96 hours and 120 hours. Exemplary dose response curves at 72 hours are presented as FIGS. 10 and 11 in RH4 and RH30 cells, respectively.
as §2, with “to” for “to further”, “PFI-90” for “PFI-63”, “32” for “10”, “33” for “11”

[4] = Log P / solubility; assay type: physicochemical
[5] = tested on: PAX3-FOXO1 fusion transcription factor; assay: RH4 ALK-Luc luciferase reporter assay (PAX3-FOXO1 super enhancer activity); assay type: cell-based, human; conditions: for Avg Absorbance @ 1 μM, ALK-Luc / Avg Absorbance @ 10 μM, ALK-Luc: RH4 ALK-Luc reporter
Protocol: The screen was performed using two derivatives of RH4 FP-RMS cells: • (1) “ALK-Luc cells”—RH4 cells expressing a pGreenFire green fluorescent protein (GFP)-luciferase reporter (SEQ ID NO: 1) controlled by the PAX3-FOXO1-dependent intronic ALK super enhancer (for reporting on PAX3-FOXO1 activity) (FIGS. 1 and 2); and • (2) “CMV-Luc cells”—control RH4 cells in which the reporter is transcribed from a constitutively active cytomegalovirus (CMV) promoter. An Example of visualization via the ALK-Luc reporter is depicted in FIG. 3.
The cells were enriched for reporter expression levels and used for assay development. A high throughput screening assay was developed after optimization of cell seeding density, length of incubation of cells prior to and post treatment with test compounds, and effect of passaging among other factors. The screen was designed to identify compounds that suppressed PAX3-FOXO1 activity without disrupting viability (at a short time points) or general transcription. The assay simultaneously monitors the function of the PAX3-FOXO1 super enhancer (also referred to as “ALK super enhancer”), general transcriptional activity as well as cell viability.
The visual summary of the screening strategy is illustrated in FIG. 4. ALK-Luc cells were seeded in both white-walled and white-bottomed 384-well plates (Perkin Elmer, Cat #6007658) for luciferase assays and in clear 384-well plates (Perkin Elmer, Cat #6007688) for viability assay (XTT reduction) by transferring 27 μL of cell suspensions (seeding 3000 cells per well) into each well. The plates were then transferred into an incubator for 18-20 h. The CMV-Luc cells were similarly seeded into white plates and incubated.
A pure compound library of 62,643 compounds consisting of synthetic and natural products described previously (Grohar et al., J Natl. Cancer Inst., 103: 962-978 (2011)) was then used in a high throughput screening campaign to identify inhibitors of PAX3-FOXO1. Stock DMSO Solutions of these compounds were used to prepare 100 μM solutions in growth medium in 384-well plates also containing 16 wells each of a positive control (Actinomycin D, Sigma, Cat #A1410) and negative control (DMSO). Screening compounds along with the positive and negative controls were added to assay plates by transferring 3 μL of the prepared 100 μM dilutions using an automated liquid handler (Agilent, Bravo). Treated plates were incubated for 24 h. At the end of this period, treated plates were allowed to equilibrate to room temperature for 30 minutes. SteadyLite Plus luciferase assay reagent powder (PerkinElmer, Cat #6066759) was reconstituted in its buffer in parallel and was also allowed to equilibrate to room temperature.
After transferring 30 μL of the luciferase assay reagent using a liquid handler, plates were further incubated at room temperature for 10 minutes. Finally, luminescence measurements were carried out using a multi-label microplate reader (BMG, Pherastar FSX) set in luminescence mode. Cell viability was assessed by adding XTT reagent (10 μL per well) in clear plates containing treated ALK-Luc cells. XTT treated plates were read using a plate reader in absorbance mode at 450 nm (PerkinElmer, Envision) after further incubation for 1 hour to allow cells to metabolize XTT to a colored formazan product. Luminescence and XTT absorbance values were normalized to the average of the negative controls on each plate and were calculated as a percentage of these controls. Performance of the screening assay was routinely monitored via calculation of Z-factor (Zhang et al., J. Biomol. Screen., 4: 67-73 (1999)) with Z′ for all plates found to be >0.7.
RH4 ALK-Luc and RH4 CMV-Luc cells were seeded into separate white-walled and bottomed 384-well plates and were incubated and treated with screen hits and epigenome compounds. The highest test concentration of these compounds (10-fold) were prepared from DMSO stock solutions via dilution in medium. […]

[6] = tested on: TC-32 Ewing's sarcoma cells; assay: Cell confluence assay in TC-32 Ewing's sarcoma cells; assay type: cell-based; conditions: Homo sapiens, TC-32 cells
Protocol: as §2, with “OSA-CL osteosarcoma” for “RH4 and RH30 rhabdomyosarcoma”, “59” for “10”, “60 for PFI-63” for “11 in RH4”, “PFI-90” for “RH30 cells,”
A similar assay was performed to assess the cytotoxicity of PFI-63 and PFI-90 in TC-32 Ewing's sarcoma cells. Exemplary dose response curves at 72 hours are presented as FIGS. 61 and 62 for PFI-63 and PFI-90 respectively.

[7] = tested on: RH4 cells; assay: Gene set enrichment analysis (GSEA) of RNASeq gene expression; assay type: cell-based, human
Protocol: Gene set enrichment analyses (GSEA) were performed according to methods known in the art to evaluate […] in cells treated with PFI-63 as compared to control cells. Briefly, gene expression in RH4 cells treated with PFI-63 was assessed by RNASeq, and the results were statistically compared with various pre-existing gene sets. […] The results also indicate that RH4 cells treated with PFI-63 experience upregulation of targets associated with myogenic differentiation and apoptosis (see FIGS. 18 and 19).
GSEA assays like those performed in Example 3 above, were also performed to assess PFI-90. The results for PFI-90 were similar to those obtained for PFI-63. […] The results also indicate that cells treated with PFI-90 experience upregulation of targets associated with myogenic differentiation and apoptosis (see FIGS. 39-40).

[8] = tested on: RH4 cells; assay: Annexin V staining; assay type: cell-based, human; conditions: relative to DMSO control
Description: as §1

[9] = 72 hour time point, read-out: IC50
[10] = approximate, read-out: IC50 (toxic to Ewing's sarcoma cells)

Row | Structure (SMILES) | caspase 3 [1] | caspase 3 [2] | pIC50 [3] | logP [4] | suppression of PAX3-FOXO1 super enhancer activity [5] | Avg Absorbance @ 1 μM, ALK-Luc [5] | Avg Absorbance @ 10 μM, ALK-Luc [5] | pIC50 [6, 9] | pIC50 [6, 10] | GSEA: genes that are induced upon KDM3B suppression [7] | GSEA: targets associated with apoptosis [7] | GSEA: targets associated with myogenic differentiation [7] | GSEA: targets of the PAX3-FOXO1 fusion transcription factor [7] | GSEA: targets that are upregulated by GSK-J4 [7] | GSEA: targets that are upregulated by JIB-04 [7] | cell death by annexin V staining [8] | solubility ([4]; relative to PFI-63)
1 | Cc1cc(C)cc(C(=O)NNC(=O)c2ccccn2)c1 [PFI-63] | increased caspase 3 | increased caspase 3 | 5.32 | 2.36 | significant suppression | 91.4 | 40.1 | 5.73 | ~5.70 | upregulated | upregulation | upregulation | downregulated | upregulated; also recorded: upregulation | upregulated; also recorded: upregulation | increase in cell death | –
2 | O=C(NNc1ccccn1)c1ccccn1 [PFI-90] | increased caspase 3 | increased caspase 3 | 5.49 | 0.82 | – | 55.9 | 34.0 | 5.95 | ~6.00 | upregulated | upregulation | upregulation | downregulated | – | – | increase in cell death | improved solubility relative to PFI-63
